Data published in ChEMBL document CHEMBL1141977 (Bioorg Med Chem Lett, 2005).
pKi: −log10 of the molar value.

How the values were obtained:
[1] = molecular target: Sodium-dependent serotonin transporter (Rattus norvegicus, UniProt P31652); assay: Binding affinity determined against Serotonin transporter determined by displacement of [3H]paroxetine from rat cortical membranes; type: cell membranes, Membrane
[2] = molecular target: T1, 5-hydroxytryptamine receptor 1A (Homo sapiens) (UniProt P08908); assay: Intrinsic activity towards 5-HT1A receptor using [35S]GTP-gamma-S, binding assay; type: functional
T1 sequence (whole entry): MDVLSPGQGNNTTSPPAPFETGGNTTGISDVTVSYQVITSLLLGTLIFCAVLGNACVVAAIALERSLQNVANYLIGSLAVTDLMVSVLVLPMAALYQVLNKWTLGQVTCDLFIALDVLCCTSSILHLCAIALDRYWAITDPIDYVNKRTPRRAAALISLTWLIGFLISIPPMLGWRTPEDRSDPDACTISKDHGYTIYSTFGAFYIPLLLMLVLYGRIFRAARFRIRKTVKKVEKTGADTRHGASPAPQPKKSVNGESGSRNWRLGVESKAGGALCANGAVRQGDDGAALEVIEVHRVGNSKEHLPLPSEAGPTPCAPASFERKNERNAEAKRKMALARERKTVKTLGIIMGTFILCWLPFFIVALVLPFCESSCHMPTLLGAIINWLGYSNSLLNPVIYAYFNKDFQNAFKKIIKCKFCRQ

[3] = molecular target: T2, 5-hydroxytryptamine receptor 1A (Homo sapiens, UniProt P08908); assay: Binding affinity determined against human 5-hydroxytryptamine 1A receptors transfected into CHO cells.; type: cell-based
T2 sequence (P08908 whole entry): T1 sequence (whole entry)

Sodium-dependent serotonin transporter, sequence (P31652 whole entry): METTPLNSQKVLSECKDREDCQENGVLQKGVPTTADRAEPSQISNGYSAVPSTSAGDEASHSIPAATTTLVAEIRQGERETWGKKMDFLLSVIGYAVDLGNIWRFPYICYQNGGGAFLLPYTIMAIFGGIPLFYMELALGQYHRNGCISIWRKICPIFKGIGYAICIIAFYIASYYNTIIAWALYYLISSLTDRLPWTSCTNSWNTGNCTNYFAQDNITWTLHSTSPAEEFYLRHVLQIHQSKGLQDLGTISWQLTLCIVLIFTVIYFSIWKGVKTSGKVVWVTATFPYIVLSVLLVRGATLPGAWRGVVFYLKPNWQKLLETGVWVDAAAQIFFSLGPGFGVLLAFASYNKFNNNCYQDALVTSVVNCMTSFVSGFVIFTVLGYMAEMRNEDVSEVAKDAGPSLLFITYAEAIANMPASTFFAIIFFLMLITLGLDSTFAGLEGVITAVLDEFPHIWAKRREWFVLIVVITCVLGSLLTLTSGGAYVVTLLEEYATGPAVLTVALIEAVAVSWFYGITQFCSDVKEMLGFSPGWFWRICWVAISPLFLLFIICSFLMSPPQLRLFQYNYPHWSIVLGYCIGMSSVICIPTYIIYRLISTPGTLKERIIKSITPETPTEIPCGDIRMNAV

Compound	pKi [1]	Emax [2] [%]	pKi [3]
Fc1ccc2[nH]cc([C@H]3CC[C@@H](NCC4COc5ccccc5O4)CC3)c2c1 (stereo not given in full)	7.63	44	6.48
Fc1ccc2[nH]cc([C@H]3CC[C@H](N4CCN(c5cccc6[nH]ccc56)CC4)CC3)c2c1		43	
COc1ccccc1N1CCN([C@H]2CC[C@@H](c3c[nH]c4ccc(F)cc43)CC2)CC1	8.48	5	6.89
Fc1ccc2[nH]cc([C@H]3CC[C@H](N4CCN(c5cccc6c5OCCO6)CC4)CC3)c2c1	7.17	57	
Fc1ccc2[nH]cc([C@H]3CC[C@H](NCC4COc5ccccc5O4)CC3)c2c1 (stereo not given in full)	7.85	94	6.71
Fc1ccc2[nH]cc([C@H]3CC[C@@H](N4CCN(c5cccc6[nH]ccc56)CC4)CC3)c2c1		10	
Fc1ccc2[nH]cc([C@H]3CC[C@@H](N4CCN(c5cccc6c5OCCO6)CC4)CC3)c2c1	8.27	0	
COc1ccccc1N1CCN([C@H]2CC[C@H](c3c[nH]c4ccc(F)cc43)CC2)CC1	7.34	29	7.84

The next lines start with the values.

pKi [1]	Emax [2] [%]	pKi [3]	Compound
7.90	7		Fc1ccc2[nH]cc([C@H]3CC[C@@H](NCCOc4cccc5[nH]ccc45)CC3)c2c1
8.98	43		Fc1ccc2[nH]cc([C@H]3CC[C@H](NCCOc4cccc5c4OCCO5)CC3)c2c1
7.92	27		Fc1ccc2[nH]cc([C@H]3CC[C@@H](NCCOc4cccc5c4OCCO5)CC3)c2c1
	22	6.51	COc1ccccc1OCCN[C@H]1CC[C@@H](c2c[nH]c3ccc(F)cc32)CC1
8.76	59		Fc1ccc2[nH]cc([C@H]3CC[C@H](NCCOc4cccc5[nH]ccc45)CC3)c2c1
	80	7.65	COc1ccccc1OCCN[C@H]1CC[C@H](c2c[nH]c3ccc(F)cc32)CC1
